Data set [1] relates to bacterial flora present on prerigor beef samples. Put plainly: Working Example #1: total plate count on prerigor beef after spray, with or without steam. Type of data set: cell-based. The method, then: The objective of working example #1 was to determine if 0.5% and 1.0% lactic acid alone and in combination with Test Formula #1 and/or steam achieved a reduction in the bacterial flora present on prerigor beef samples. An exposure time of 10 minutes was utilized for all applications and testing was performed at 33° C. Sixteen prerigor beef samples were obtained and kept in a cooler until time of testing. Samples were aseptically divided in half. Eight different test treatments were utilized with four replicate pieces per treatment with the exception of the steam +0.5% lactic acid treatment which only had three replicate pieces. Two cores (4.3 cm diameter) were taken from each replicate piece before and after treatment, combined into 99 mL of Phosphate Buffered Dilution water, stomached for 1 minutes and then serially diluted and plated using pour plate technique. Test Products: • 1. Test Formula #1 at 200 ppm Total […] • 2. Test Formula #1 at 200 ppm Total […]+0.5% Lactic Acid • 3. Test Formula #1 at 200 ppm Total […]+1.0% Lactic Acid • 4. 0.5% Lactic Acid • 5. Steam Alone, followed by a sterile water rinse • 6. Steam+Test Formula #1 at 200 ppm Total […], followed by a sterile water rinse • 7. Steam+Test Formula #1 at 200 ppm Total […]+0.5% Lactic Acid, followed by a sterile water rinse • 8. Steam+0.5% Lactic Acid followed by a sterile water rinse Product Application: All product use solutions were applied by a spray application for 10 seconds. This delivered approximately 150 mL of product. An exposure time of 10 minutes was utilized, followed by a 10 second sterile water rinse, if applicable. Neutralizer: 99 mL of Phosphate Buffered Dilution Water Dilutions Plated: 10^0, 10^-1, 10^-2 for Total Plate Count Before • 10^0, 10^-1 for Total Plate Count After Plating Medium: Tryptone Glucose Extract Agar Incubation: 26° C. for 72 hours [table]

The test system of data set [2] is bacterial flora of prerigor beef. Put plainly: Working Example #2: total plate count on prerigor beef, extended spray and exposure times. Type of data set: cell-based. Conditions: 0.5% Lactic Acid, 25 psi, 10 sec spray, 10-minute exposure. An excerpt: The objective of the testing was to determine the efficacy of various antimicrobial treatments with extended spray and exposure times against the bacterial flora of prerigor beef. Prerigor beef samples were obtained and kept in a cooler at ambient temperature until time of testing. Ten different test treatments were utilized with four replicates per treatment. Two cores (4.3 cm diameter) were taken as each replicate from one piece for both before- and after-treatment samples and combined into 99 mL of Letheen Broth. The cores/neutralizer mixtures were stomached for 1 minute and then serially diluted and plated using pour plate technique. Test Products: • Test Formula #1* at 200 ppm […]=0.42% (4.2 mL were added to 995.8 mL tap water) • Test Formula #1* at 500 ppm […] (10.5 mL were added to 989.5 mL tap water) • 0.5% Lactic Acid • *Test Formula #1, batch # Si120972, was titrated at 4.76% total peracid. Application: Eight cores (2 cores per replicate) were placed onto a clean and sanitary screen. The cores were sprayed with the appropriate test product utilizing a 10- or 30-second spray application time. For each replicate, two cores were removed after a 10-minute exposure time and placed into a stomacher bag containing 99 mL of neutralizer. Neutralizer: 99 mL Letheen Broth Dilutions: 10^0, 10^-1, 10^-2 for Total Plate Count Before • 10^0, 10^-1 for Total Plate Count After Plating Medium: Tryptone Glucose Extract Agar Incubation: 26° C. for 72 hours Calculations: Average CFU/plate=(All eight counts from four replicates/4) • Average CFU/plate×100=Average CFU/100 mL=Y [formula] • Dilution=10, 100, or 1000 • r=2.15 cm • 2=# of cores

For data set [3] the test system is unchanged. The experiment in a line: Working Example #4: total plate count on prerigor beef, high pressure spray, comparison to Lactic Acid. Format: cell-based. Conditions: ~0.5% Lactic Acid, ~230 psi, 30 sec spray, 10-minute exposure. An excerpt:
The objective of the testing was to determine the efficacy of Test Formula #1 at approximately 50, 100 and 200 ppm total peracid with a high pressure application spray at elevated temperatures in comparison to Lactic Acid against the bacterial flora of prerigor beef. Prerigor beef samples were obtained and kept in a cooler at ambient temperature until time of testing. Four different test treatments were utilized with four replicates per treatment. Two cores (4.3 cm diameter) were taken as each replicate from one piece for both before- and after-treatment samples and combined into 99 mL of Letheen Broth. The cores/neutralizer mixtures were stomached for 1 minute and then serially diluted and plated using pour plate technique. Test Product: Test Formula #1 at 50, 100 and 200 ppm total peracid • Lactic Acid (88% concentrate) • (Batch # Si120972, was titrated at 4.76% total peracid) Application: Eight cores (2 cores per replicate) were aseptically removed from each sample before treatment. These were used for the before-treatment samples. The remaining sample was placed onto a clean and sanitary screen. The sample was then sprayed with Test Formula #1 at approximately 50, 100 or 200 ppm total peracid utilizing a 20- or 30-second spray application time. 0.5% Lactic Acid utilized only the 30-second spray application. […]

Data set [4] deals with Listeria innocua ATCC 33090. The experiment in a line: Working Example #5: inoculated prerigor beef, high-pressure spray. Conditions: ˜0.5%-0.75% Lactic Acid; ~220 psi, 30 second spray, ˜120° F., 10 minutes exposure. Type of data set: cell-based. The method, then: The objective of the testing was to determine the efficacy of Test Formula #1 and Lactic Acid against Listeria innocua ATCC 33090 with a high-pressure application spray at elevated temperatures. Prerigor beef samples were obtained and kept in a cooler at ambient temperature until time of testing. Samples were cut into 13 cm pieces and 2.0 mL of the inoculum (see Test System Preparation below) was spread evenly over the entire surface of the sample. Inoculated samples were then left at room temperature (˜23° C.) for ≧15 minutes. Four replicate samples were taken (two cores per replicate) before treatment. After each spray treatment, a 10-minute exposure time was utilized, and taken four replicate samples were taken (two cores per replicate) and stomached for 1 minute, serially diluted and plated using pour plate technique. Treatments: • 1. Test Formula #1 at 200 ppm total peracid with […], 30 second spray time. • 2. Test Formula #1 at 200 ppm total peracid with ˜150 psi pressure spray, 30 second spray time. • 3. Test Formula #1 at 200 ppm total peracid with ˜100 psi pressure spray, 30 second spray time. • 4. Water Control with ˜220 psi pressure spray, 30-second spray time. • 5. ˜0.5%-0.75% Lactic Acid with ˜220 psi pressure spray, 30-second spray time. • 6. Test Formula #1 at 100 ppm total peracid with ˜220 psi pressure spray, 30 second spray time. • 7. […]

For data set [5] the following is noted: cited from earlier work.

As for `CC(O)C(=O)O` (stereo not shown) [Lactic Acid, 2-hydroxypropionic acid], the “Avg. Log10 Reduc.” value in data set [1] (0.5% Lactic Acid, 10 s spray, 10 min exposure, 33° C.) was 0.91 Log10; in data set [1] (Steam + 0.5% Lactic Acid, with sterile water rinse), 1.69 Log10; in data set [2] (98° F.), −0.01 Log10; in data set [2] (120° F.) it was 0.07 Log10; in data set [3], 1.58 Log10; in data set [4] it was 1.63 Log10. For the same molecule, the “Avg. CFU/100 mL After” value in data set [1] (0.5% Lactic Acid, 10 s spray, 10 min exposure, 33° C., Before 2.7 × 10^4) is reported as 5.4 × 10^3 CFU/100 mL; in data set [1] (Steam + 0.5% Lactic Acid, with sterile water rinse, Before 2.5 × 10^4) it was 9.3 × 10^2 CFU/100 mL; in data set [2] (98° F., Before 1.6 × 10^4), 1.5 × 10^4 CFU/100 mL; in data set [2] (120° F., Before 1.0 × 10^5) it was 8.4 × 10^4 CFU/100 mL; in data set [3] (Before 8.7 × 10^5), 2.3 × 10^4 CFU/100 mL; in data set [4] it was 3.5 × 10^5 CFU/100 mL.
On to peroxyacetic acid, for which the solubility entry in data set [5] was “freely soluble in water, alcohol, ether, and sulfuric acid”.

The values above are taken from patent publication US9770040B2, “Treatment of animal carcasses” (Ecolab USA Inc., priority 1998, dated 2017).
